Test results reported in US9499554B2, “Anti-influenza compositions and methods” (priority 2013, dated 2016).
Values after ≈ are worked out from the molar mass of the structure shown. Like-named read-outs stand apart in the source and are kept apart here. Marks after values point to notes of the source that are not given here.

Columns and labels:
[1] = system: Influenza A H1N1 CA/04/2009 (Pandemic H1N1); experiment: microbe, parasite or virus in culture; assay type: cell-based
[2] = system: Influenza A H3N2 Brisbane/10/2007; experiment: microbe, parasite or virus in culture; assay type: cell-based
[3] = system: Influenza A H5N1 VN/1203/2004 Hybrid (on H1N1 backbone); experiment: microbe, parasite or virus in culture; assay type: cell-based
[4] = system: Influenza B Florida; experiment: microbe, parasite or virus in culture; assay type: cell-based
[5] = system: Parainfluenza 3 14702 (MA-104 cells); experiment: organism not typed; assay type: cell-based
[6] = system: Influenza A H1N1 CA/04/2009 (Pandemic H1N1); experiment: microbe, parasite or virus in culture; assay type: cell-based; settings: for EC50: Influenza A virus
[7] = system: Influenza A H3N2 Brisbane/10/2007; experiment: microbe, parasite or virus in culture; assay type: cell-based; settings: for EC50: Influenza A virus
[8] = system: Influenza A H5N1 VN/1203/2004 Hybrid (on H1N1 backbone); experiment: microbe, parasite or virus in culture; assay type: cell-based; remark: listed apart in the source
[9] = system: Influenza B Florida; experiment: microbe, parasite or virus in culture; assay type: cell-based; settings: for EC50: Influenza B virus
[10] = system: Parainfluenza 3 14702 (MA-104 cells); experiment: organism not typed; assay type: cell-based; remark: listed apart in the source
[11] = system: A/CA/27/2007 (H1N1); experiment: microbe, parasite or virus in culture; assay type: cell-based; settings: Influenza A virus, H1N1, MDCK, read-out: EC50, antiviral activity in MDCK cells
[12] = system: A/Vic/3/75 (H3N2); experiment: microbe, parasite or virus in culture; assay type: cell-based; settings: Influenza A virus, H3N2, MDCK, read-out: EC50, antiviral activity in MDCK cells
[13] = system: influenza viruses; experiment: organism not typed; assay type: cell-based; settings: read-out: EC50 values against the influenza viruses by visual assay
[14] = system: influenza viruses; experiment: organism not typed; assay type: cell-based; settings: read-out: EC50 values against the influenza viruses as measured by NR assay
[15] = system: influenza virus H3N2 (A/Victoria/3/75); experiment: microbe, parasite or virus in culture; assay type: cell-based; settings: H3N2, MDCK; 72 hrs; read-out: Percent Inhibition of Cytopathic Effect
[16] = system: H3N2 virus (A/Victoria/3/75); parameters: species or system Balb/C mice; settings: mouse, in vivo
[17] = system: H3N2 virus (A/Victoria/3/75); parameters: species or system Balb/C mice; settings: mouse, in vivo, po
[18] = system: MDCK cells; settings: dog
[19] = system: MA-104 cells; settings: African green monkey
[20] = system: MDCK cells; settings: dog; remark: listed apart in the source
[21] = system: MA-104 cells; settings: African green monkey; remark: listed apart in the source
[22] = in vivo; settings: female, Balb/c, mouse, po, 100 mg/kg

For `Nc1ncnc2c([C@@H]3N[C@H](CO)[C@@H](O)[C@H]3O)c[nH]c12` [compound 1, (2S,3S,4R,5R)-2-(4-Amino-5H-pyrrolo[3,2-d]pyrimidin-7-yl)-5-(hydroxymethyl)pyrrolidine-3,4-diol], the “SI, Visual CPE Assay” value [1] was 120, the EC50 ([1]; Influenza A virus, H1N1, read-out: EC50, Visual CPE Assay) was 1.8 µg/mL (≈ 6.79 µM) and the “SI, Visual CPE Assay” value [2] was 140. The EC50 ([2]; Influenza A virus, H3N2, read-out: EC50, Visual CPE Assay) was 1.8 µg/mL (≈ 6.79 µM), the “SI, Visual CPE Assay” value [3] was >1600 and the “SI, Visual CPE Assay” value [4] was 290. For the same compound, the EC50 ([4]; Influenza B virus, Influenza B Florida, read-out: EC50, Visual CPE Assay) was 1.8 µg/mL (≈ 6.79 µM), the “SI, Visual CPE Assay” value [5] was 7.1 and the EC50 ([5]; MA104, read-out: EC50, Visual CPE Assay) was 14 µg/mL (≈ 52.8 µM). The “SI, Neutral Red Uptake Assay” value [6] was 120, the EC50 ([6]; H1N1, MDCK, read-out: EC50, antiviral activity in MDCK cells) was 1.8 µg/mL (≈ 6.79 µM) and the EC50 ([6]; H1N1, read-out: EC50, Neutral Red Uptake Assay) was 1.8 µg/mL (≈ 6.79 µM). The “SI, Neutral Red Uptake Assay” value [7] was 79, the EC50 ([7]; H3N2, MDCK, read-out: EC50, antiviral activity in MDCK cells) was 5.6 µg/mL (≈ 21.1 µM) and the EC50 ([7]; H3N2, read-out: EC50, Neutral Red Uptake Assay) was 5.6 µg/mL (≈ 21.1 µM). The “SI, Neutral Red Uptake Assay” value [8] was 130, the “SI, Neutral Red Uptake Assay” value [9] was 38 and the EC50 ([9]; B/Florida, MDCK cells, Table 2, read-out: EC50, antiviral activity in MDCK cells) was 1.8 µg/mL (≈ 6.79 µM). For the same compound, the EC50 ([9]; Influenza B Florida, read-out: EC50, Neutral Red Uptake Assay) was 1.8 µg/mL (≈ 6.79 µM), the “SI, Neutral Red Uptake Assay” value [10] was 52 and the EC50 ([10]; MA104, read-out: EC50, Neutral Red Uptake Assay) was 10 µg/mL (≈ 37.7 µM). The EC50 [11] was 0.66 µg/mL (≈ 2.49 µM), the EC50 [12] was 4 µg/mL (≈ 15.1 µM) and the EC50 [13] was 0.63 to 1.8 µg/mL (≈ 2.37 to 6.79 µM). It also gave an EC50 [14] of 1.8 to 5.6 µg/mL (≈ 6.79 to 21.1 µM), an inhibition at 1.8 µM [15] of 1.6 ± 6.1% and an inhibition at 7.8 µM [15] of 25.8 ± 4.8%. The “Mean day to death (Mean ± SEM)” value [16] was >16 days, the Survival/Total [16] was 10/10* and the “effect on survival and weight loss in infected mice” value [16] was “improves the survival and weight loss”. The “effect on survival and weight loss in infected mice” value [17] was “improves the survival and weight loss”, the “Mean day to death (Mean ± SEM)” value ([17]; 30 mg/kg/day) was >16 days and the “Mean weight change (grams ± SEM) Day 9” value ([17]; 30 mg/kg/day) was −1.58 ± 0.32 grams. The Survival/Total ([17]; 30 mg/kg/day) was 10/10*, the “Mean day to death (Mean ± SEM)” value ([17]; 100 mg/kg/day) was >16 days and the Survival/Total ([17]; 100 mg/kg/day) was 10/10*. The “Mean day to death (Mean ± SEM)” value ([17]; 300 mg/kg/day) was >16 days, the “Mean weight change (grams ± SEM) Day 9” value ([17]; 300 mg/kg/day) was 0.66 ± 0.23 grams and the Survival/Total ([17]; 300 mg/kg/day) was 10/10*. For the same compound, the “IC50 (50% cytotoxic dose), Visual CPE Assay” value [18] was >1000 µg/mL, the “IC50 (50% cytotoxic dose), Visual CPE Assay” value [19] was 100 µg/mL (≈ 377 µM) and the “IC50 (50% cytotoxic dose), Neutral Red Uptake Assay” value [20] was 130 µg/mL (≈ 490 µM). The “IC50 (50% cytotoxic dose), Neutral Red Uptake Assay” value [21] was 52 µg/mL (≈ 196 µM), the concentration at 0.17 hr [22] was 607 ± 61 ng/mL and the concentration at 0.5 hr [22] was 910 ± 122 ng/mL. It also gave a concentration at 1 hr [22] of 342 ± 122 ng/mL, a concentration at 3 hr [22] of 89.7 ± 8.5 ng/mL and a concentration at 5 hr [22] of 94.2 ± 6.4 ng/mL. For the same compound, the concentration at 24 hr [22] was 50.5 ± 8.9 ng/mL.
